Reference: EP3088535A1 (priority 2015, dated 2016)

Tests used:
[1] = biological target: Reverse Transcriptase from Patient #A infected by HIV-1 (Human immunodeficiency virus type 1, UniProt P04585)
Protocol: (§1) Transformed cells (that grew in TRP lacking media) were incubated for 16h with shacking in 13 mL rich medium (Yeast extract Peptone Dextrose) at a final cell density 0,06 OD / mL.
(§2) 13 mL cell culture supernatant was collected after centrifugation at 1500 rpm for 5min and kept as the source for in vitro Reverse Transcriptase resistance analysis.
(§3) HIV Reverse Transcriptase resistance to reverse transcriptase inhibitors was analyzed as follows.
(§4) In a final volume of 150µl, 120µl of transformed cell's medium were incubated in 56 mM Tris-HCl, 56 mM KCl and 9 mM MgCl2 with: • 1.76µg of MS2 RNA (SEQ ID NO: 20), and • 0.059 pmoles of 5'biotinylated primer of SEQ ID NO: 19, and • dNTP mixture (1.5pmoles of each one; dATP, dGTP, dCTP, and dTTP), and • 0.19 pmoles of DIG (digoxigenin) modified dUTP, and • 30 µl of one of each concentration out of eight serial one to one dilutions of Reverse Transcriptase inhibitors in water (in this way the inhibitor was further diluted […]).
(§5) The Reverse Transcriptase inhibitor's one to one dilution started at the following concentrations:
(§6) The mixture reaction was incubated at 37°C for an overnight period (16 - 20 hours).
(§7) At the end of the incubation, each reaction mixture was transferred to a streptavidin coated flat bottom well for ELISA based RNA retro-transcribed DNA determination.
(§8) Wells were washed three times with 200µl of wash buffer (0.1%BSA and 0.05% Tween in PBS) before 30min incubation at room temperature with 100µl of a 1:1000 dilution of Peroxidase -conjugated monoclonal mouse anti-DIG (from Jackson Immunosearch ref N°JIR 200-032-156) in wash buffer.

[2] = biological target: Reverse Transcriptase from Patient #B infected by HIV-1 (Human immunodeficiency virus type 1, UniProt P04585)
Protocol: as §1, §2, §3, §4, §5, §6, §7, §8

[3] = biological target: Reverse Transcriptase from Patient #C infected by HIV-1 (Human immunodeficiency virus type 1, UniProt P04585)
Protocol: as §1, §2, §3, §4, §5, §6, §7, §8

Measured: sensitivity of RT to inhibitor compared with the reference isolate HIV-1 IIIB

Cc1ccnc2c1NC(=O)c1cccnc1N2C1CC1 [NVP, nevirapine]
more sensitive: all assays above
